Source: the NIST ThermoML archive (doi:10.1021/acs.jced.6b00516)
± gives the expanded uncertainty stated by the source.

Assay: wn = mass fraction of the nth substance listed
Settings: 102 kPa, Liquid, Vibrating tube method

CCCCC1CCCCC1 [butylcyclohexane] + Cc1ccccc1
mass density [kg/m3]
Settings	w1 = 0.1002	w1 = 0.2175	w1 = 0.3001	w1 = 0.3999	w1 = 0.5	w1 = 0.6001	w1 = 0.6995	w1 = 0.8001	w1 = 0.8996
293.15 K	858.58 ± 0.1	849.42 ± 0.1	843.23 ± 0.1	835.97 ± 0.1	829.25 ± 0.1	822.67 ± 0.11	816.44 ± 0.11	810.43 ± 0.11	804.75 ± 0.11
303.15 K	849.47 ± 0.1	840.53 ± 0.1	834.5 ± 0.1	827.42 ± 0.11	820.88 ± 0.11	814.48 ± 0.11	808.43 ± 0.11	802.58 ± 0.11	797.08 ± 0.11
313.15 K	840.29 ± 0.1	831.58 ± 0.1	825.72 ± 0.11	818.82 ± 0.11	812.46 ± 0.11	806.25 ± 0.11	800.37 ± 0.11	794.7 ± 0.12	789.37 ± 0.12
323.15 K	831.04 ± 0.1	822.57 ± 0.11	816.86 ± 0.11	810.17 ± 0.11	803.99 ± 0.11	797.96 ± 0.11	792.27 ± 0.12	786.78 ± 0.12	781.62 ± 0.12
333.15 K	821.72 ± 0.11	813.48 ± 0.11	807.94 ± 0.11	801.44 ± 0.11	795.45 ± 0.12	789.62 ± 0.12	784.11 ± 0.12	778.81 ± 0.12	773.83 ± 0.12
343.15 K	812.2 ± 0.2	804.3 ± 0.2	798.8 ± 0.2	792.6 ± 0.2	786.8 ± 0.2	781.3 ± 0.2	775.9 ± 0.2	770.7 ± 0.2	765.9 ± 0.2
353.15 K	802.7 ± 0.2	795.1 ± 0.2	789.7 ± 0.2	783.7 ± 0.2	778.1 ± 0.2	772.8 ± 0.2	767.5 ± 0.2	762.6 ± 0.2	758 ± 0.2

CCCCC1CCCCC1 [butylcyclohexane] + CCCCCCCCCCCCCCCC
mass density [kg/m3]
Settings	w1 = 0.1002	w1 = 0.2	w1 = 0.3001	w1 = 0.3998	w1 = 0.4998	w1 = 0.6001	w1 = 0.7	w1 = 0.7999	w1 = 0.8998
293.15 K	775.85 ± 0.16	778.23 ± 0.16	780.67 ± 0.16	783.16 ± 0.15	785.72 ± 0.15	788.34 ± 0.15	791.01 ± 0.15	793.72 ± 0.15	796.48 ± 0.15
303.15 K	768.9 ± 0.16	771.24 ± 0.16	773.65 ± 0.16	776.08 ± 0.16	778.59 ± 0.16	781.15 ± 0.15	783.74 ± 0.15	786.38 ± 0.15	789.06 ± 0.15
313.15 K	761.94 ± 0.17	764.25 ± 0.16	766.6 ± 0.16	768.99 ± 0.16	771.43 ± 0.16	773.92 ± 0.16	776.44 ± 0.16	779 ± 0.15	781.6 ± 0.15
323.15 K	754.99 ± 0.17	757.24 ± 0.17	759.55 ± 0.17	761.87 ± 0.16	764.25 ± 0.16	766.67 ± 0.16	769.12 ± 0.16	771.6 ± 0.16	774.12 ± 0.16
333.15 K	748.02 ± 0.17	750.22 ± 0.17	752.47 ± 0.17	754.73 ± 0.17	757.04 ± 0.17	759.39 ± 0.17	761.76 ± 0.16	764.16 ± 0.16	766.6 ± 0.16
343.15 K	741.1 ± 0.18	743.2 ± 0.17	745.35 ± 0.17	747.5 ± 0.17	749.8 ± 0.17	752.1 ± 0.17	754.35 ± 0.17	756.6 ± 0.2	759 ± 0.16
353.15 K	734.1 ± 0.2	736.1 ± 0.2	738.3 ± 0.2	740.3 ± 0.2	742.5 ± 0.2	744.7 ± 0.2	746.9 ± 0.2	749.1 ± 0.2	751.4 ± 0.2
